According to patent US20090028925A1, “Novel Phosphinic Acid-Containing Thyromimetics” (priority 2005, published 2009):

Experiments:
[1] = molecular target: T1, human thyroid hormone receptors TRα1 (Homo sapiens, UniProt P10827); test: Receptor binding to TRα1 (gel filtration and scintillation proximity assay, labeled T3); conditions: SPA data; read-out: Ki TRα
T1 construct: made in house; host or cells: Sf9 insect cells (baculovirus)
T1 sequence (P10827 1-410 isoform P10827-2): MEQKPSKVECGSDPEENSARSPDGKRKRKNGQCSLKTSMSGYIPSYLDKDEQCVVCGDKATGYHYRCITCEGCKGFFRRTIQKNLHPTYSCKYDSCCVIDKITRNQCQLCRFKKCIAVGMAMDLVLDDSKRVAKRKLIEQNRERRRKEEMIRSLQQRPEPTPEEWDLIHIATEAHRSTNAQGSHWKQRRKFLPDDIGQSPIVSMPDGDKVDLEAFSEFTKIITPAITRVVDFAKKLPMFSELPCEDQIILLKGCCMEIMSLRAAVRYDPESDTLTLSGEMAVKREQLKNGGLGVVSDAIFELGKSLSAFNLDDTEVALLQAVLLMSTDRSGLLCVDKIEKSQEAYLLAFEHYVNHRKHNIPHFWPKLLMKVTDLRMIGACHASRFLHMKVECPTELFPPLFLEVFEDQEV
T1 sequence (P19793 1-462 partner): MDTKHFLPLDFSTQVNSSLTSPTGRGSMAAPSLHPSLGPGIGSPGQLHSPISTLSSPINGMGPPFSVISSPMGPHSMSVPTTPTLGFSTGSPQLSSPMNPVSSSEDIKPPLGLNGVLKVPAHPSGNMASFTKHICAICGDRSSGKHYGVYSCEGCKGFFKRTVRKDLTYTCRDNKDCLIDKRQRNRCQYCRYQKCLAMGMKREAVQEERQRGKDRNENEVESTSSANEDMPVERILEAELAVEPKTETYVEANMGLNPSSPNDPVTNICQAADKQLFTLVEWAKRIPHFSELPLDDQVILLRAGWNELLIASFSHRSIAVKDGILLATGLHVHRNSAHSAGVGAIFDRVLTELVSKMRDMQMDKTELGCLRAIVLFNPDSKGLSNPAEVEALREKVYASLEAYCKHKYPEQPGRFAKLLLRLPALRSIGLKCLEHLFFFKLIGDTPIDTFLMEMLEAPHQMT

[2] = test system: heart mGPDH activity; test: Subacute study in normal rats, continuous infusion: heart mGPDH activity; assay type: in vivo, rats (Sprague-Dawley); conditions: continuous infusion 1 mg/kg/day
Description: (§1) Efficacy endpoints include serum cholesterol, liver mitochondrial glycerol phosphate dehydrogenase (mGPDH) activity and the expression of relevant liver genes (e.g., the LDL-receptor, apoB, cpt-1, spot14 and apoAI). Safety parameters include heart weight, heart rate, heart mGPDH activity, the expression and key genes involved in cardiac structure and function (e.g., Serca2, HCN2, Kv1.5, MHCα, MHCβ, Alpha1c), and standard plasma chemistry analysis (liver enzymes, electrolytes, creatinine). Endocrine effects are monitored by analysis of serum thyroid stimulating hormone (TSH). [Taylor et al., Mol Pharmacol 52(3): 542-7 (1997); Weitzel et al., Eur J Biochem 268(14):4095-4103 (2001)]
Methods: mGPDH activity was analyzed in isolated mitochondria using 2-(4-iodophenyl)-3-(4-nitrophenyl)-5-phenyl tetrazolium chloride as the terminal electron acceptor (Gardner R S, Analytical Biochemistry 59:272 (1974)). Commercially available GPDH was used in each assay as a standard (Sigma, St. Louis, Mo.). Changes in levels of mRNA for liver and heart genes are analyzed using reverse transcriptase followed by real-time PCR analysis. The analysis is performed using an iCycler instrument (Biorad) and appropriate primers by means of standard methodology [e.g., Schwab D A et al. (2000) Life Sciences 66: 1683-94]. The amounts of mRNA are normalized to an internal control, typically, cyclophilin. Serum TSH is measured using an enzyme immunoassay (EIA) kit designed for rat TSH (Amersham Pharmacia Biotech, Arlington Heights, Ill.).
(§2) Normal rats (Sprague-Dawley) were maintained on a standard diet. […] The compounds were brought up to an appropriate volume using PBS and BSA to maintain solubility within the pump. The compounds were chemically stable in the excipient at 37° C. for 7 days.
(§3) Values are expressed as percent of control. (Table 4)

[3] = Subacute study in normal rats, continuous infusion: heart weight; assay type: in vivo, rats (Sprague-Dawley); conditions: continuous infusion 1 mg/kg/day
Description: as §1, §2, §3

[4] = test system: serum cholesterol; test: Subacute study in cholesterol-fed rats, IP: serum cholesterol; assay type: in vivo; conditions: IP once-a-day for seven days
[5] = Liver distribution following oral administration; assay type: in vivo; conditions: liver levels of Compound 7, normal rats, oral 10 mg/kg
Protocol: Liver levels of Compound 7 were assessed in normal rats following oral administration of the HepDirect™ or other prodrugs. The levels were used to estimate potential efficacy. Liver levels were assessed by LC-MS using the 363.3/63.0 peak area to estimate levels of Compound 7 generated by orally administered prodrugs.

[6] = test system: thyroid stimulating hormone (TSH); test: Circulating TSH in mice; assay type: in vivo; conditions: 10 mg/kg/d for 77 days
Description: Another concern with synthetic thyromimetics is the suppression of the endogenous thyroid axis. Thyroid homeostasis is maintained by the action of thyroid releasing hormone (TRH) and thyroid stimulating hormone (TSH). […] Although this particular side effect has been noted, it has typically been treated with less concern than the cardiac safety issues. […] Therefore previous investigators have measured TSH levels when testing synthetic thyromimetics and have used a 30% decrease of TSH as the denominator in their therapeutic index calculations. […] Therefore, both compounds suppress TSH as doses lower than that required to decrease circulating cholesterol. […] However, 0.2 mg/kg/d of Compound 18 in 28 day treated ZDF rats, decreased TSH levels greater than 90%.

[7] = Continuous infusion study in rats on a cholesterol-containing diet; assay type: in vivo; conditions: continuous infusion 1 mg/kg/day
Protocol: Screening for thyromimetic activity was performed in normal rats maintained on a cholesterol-containing diet. Compounds were administered by continuous infusion using an osmotic pump at 1 mg/kg/day.

For `Cc1cc(OCP(=O)(O)O)cc(C)c1Cc1ccc(O)c(C(C)C)c1` [Compound 7, [3,5-dimethyl-4-(4′-hydroxy-3′-iso-propylbenzyl)phenoxy]methylphosphonic acid], the Ki [1] was 58 nM, the “Heart GPDH” value [2] was 112% of control and the “Heart Weight” value [3] was 108% of control. The cardiac hypertrophy [3] was “did not cause cardiac hypertrophy”, the “doses that significantly decreased serum cholesterol” value [4] was 1 to 100 mg/kg/day and the “Liver Levels (ug/g) (10 mg/kg@1.5 h)” value [5] was “Not Detected”. For the same molecule, the “decrease in TSH” value [6] was “no decrease in TSH was observed”, the cholesterol lowering effects ([7]; day 7 and day 14) was “demonstrated cholesterol lowering effects” and the “cardiovascular parameters (heart rate, LV dP/dt, systolic and diastolic blood pressure)” value ([7]; day 7 or day 14) was “no changes in any of the cardiovascular parameters”.
